The values that follow come from US20090099167A1, “Organic compounds” (Novartis Institutes for Biomedical Research, priority 2004, published 2009).

For the experiment, the target named is T1, Tek (Homo sapiens, UniProt Q02763).
T1 construct: N-terminally GST-fused (pAcG1, Pharmingen) KDR, Flt-1, Flk-1, Tek and PDGFR-β kinase domains are obtained from ProQinase, Freiburg, Germany; host or cells: Sf9 or High Five (baculovirus)
T1 sequence (Q02763 824-1096 limits assumed, species assumed): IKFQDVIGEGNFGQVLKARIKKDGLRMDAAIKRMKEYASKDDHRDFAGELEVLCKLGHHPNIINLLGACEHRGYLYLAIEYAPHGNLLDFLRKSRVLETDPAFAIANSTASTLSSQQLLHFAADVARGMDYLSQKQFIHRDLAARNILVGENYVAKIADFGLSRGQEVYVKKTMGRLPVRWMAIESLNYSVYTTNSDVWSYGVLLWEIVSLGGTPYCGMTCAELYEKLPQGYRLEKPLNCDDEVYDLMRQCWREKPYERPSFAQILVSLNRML
Kind of experiment: Tek kinase inhibition, GST-fused kinase domain. It is filed as biochemical. The note with it: Table 5; read-out: Tek, IC50 class. The source says:
The inhibition of IGF-1R and Ins-R can be determined as follows: The baculovirus donor vector pfbgx3IGFIRcd is used to generate a recombinant baculovirus that expresses the amino acid region 950-1337 of the mature peptide cytoplasmic domain of the human IGF-IR. To generate the cDNA fragment encoding the amino acid region 919-1343 of the intra-cytoplasmic kinase domain of the human insulin receptor, pC5hInsR is used. The fragments of the human IGF-IR and Ins-R are cloned, expressed and small-scale purified as a factor Xa-cleavable glutathione-S-transferase (GST)-fusion protein using the Bac-to-Bac™ system (GIBCO BRL) of recombinant baculovirus generation. Virus containing media is collected from the transfected cell culture and used for infection to increase its titer. Virus containing media obtained after two rounds of infection is used for large-scale protein expression. Cell extracts are prepared and loaded onto a glutathione-Sepharose (Pharmacia) column. After washing, the GST-tagged proteins are then eluted with a glutathione-containing buffer. Purified protein is stored at −70° C. in elution buffer. Tyrosine protein kinase assays with purified GST-IGF-1R and GST-ins-R are carried in a final volume of 30 μl containing 20 mM Tris-HCl, pH 7.6, 10 mM MgCl2, 0.01 mM Na3VO4, 1% DMSO, 1 mM DTT, 3 μg/ml poly(Glu,Tyr) 4:1 and 10 μM ATP (γ-[^33P]-ATP 0.1 μCi). The assay is performed in 96-well plates at ambient temperature for 20 min and terminated by addition of 25 μl 0.05 M EDTA pH 7.0. An aliquot of 40 μl is spotted with a multichannel dispenser on Whatman P81 membranes mounted in a Millipore Microtiter filter manifold connected to a low vacuum source. After elimination of liquid, the membrane is transferred to a sequence of 4 washing baths containing 0.5% H3PO4 and one with EtOH (shaking incubation for 10 min each), dried, mounted onto a Hewlett Packard TopCount manifold added 10 μl Microscint® and counted. Compounds of formula (I) show up to 90% inhibition of Ins-R at 10,000 nM, preferably between 60-90% inhibition. The inhibition of Tek can be determined as follows: The procedure of the expression, purification and assay these kinases has been described. Fabbro et al., Pharmacol. Ther. 82(2-3) 293-301 (1999). In brief, the glutathione S-transferase (GST) gene from the pAcG1 vector (Pharmingen) is excised with EcoRV and EcoRI and inserted into the cloning site of the Fast-Bac baculoviral vector (GIBCO) creating a 5530 bp vector with N-terminal cloning sites derived from the pAcG1 fusion vector (FBG0). The C-terminal cloning site may be any cloning site (from the Fast-Bac vector) downstream of the N-terminal cloning site used. N-terminally GST-fused (pAcG1, Pharmingen) KDR, Flt-1, Flk-1, Tek and PDGFR-β kinase domains are obtained from ProQinase, Freiburg, Germany. Tek is recloned into the FBG1 vector by EcoRI excision and ligation into EcoRI digested FBG1 (FBG1-Tek). The coding sequences for the whole cytoplasmic domain of c-Kit (aa 544-976) and c-Fms (aa 538-972) are amplified by PCR from human uterus and from human bone marrow cDNA libraries (Clontech), respectively. The amplified DNA fragments are fused to GST by cloning them into FBG1 as BamHI-EcoRI insertions, to yield FBG1-c-Kit and FBG1-c-Fms. Tek is recloned into the FBG0 transfer vector by EcoRI excision and ligation into EcoRI digested FBG0 (FBG-Tie2/Tek). FGFR-1 and c-met kinase domains are obtained by PCR from human A431 cells. N-terminal primers contain an overhanging EcoRI site, while C-terminal primers contain a XhoI site to aid cloning into the transfer vectors. After digestion of both the PCR fragments and FBG0 the cleavage products are gel-purified and ligated together to form the kinase constructs (FBG-Met, FBG-FGFR-1).
Viruses for each of the kinases are made according to the protocol supplied by GIBCO. […]
For the compound `Cc1nc2c(-c3cccc(N4CCN(C)CC4)c3)cnn2c(N)c1-c1cccc(Cl)c1` [Example 72, 6-(3-Chloro-phenyl)-5-methyl-3-[3-(4-methyl-piperazin-1-yl)-phenyl]-pyrazolo[1,5-a]pyrimidin-7-ylamine], the IC50 is 1 to 10 µM.
The same measure for `Cc1nc2c(-c3ccc(N4CCN(C)CC4)cc3)cnn2c(N)c1-c1cccc(Cl)c1` [Example 73, 6-(3-Chloro-phenyl)-5-methyl-3-[4-(4-methyl-piperazin-1-yl)-phenyl]-pyrazolo[1,5-a]pyrimidin-7-ylamine]: 1 to 10 µM; for `COc1cc(N2CCN(C)CC2)ccc1-c1cnn2c(N)c(-c3cccc(O)c3)cnc12` [Example 76, 3-{7-Amino-3-[2-methoxy-4-(4-methyl-piperazin-1-yl)-phenyl]-pyrazolo[1,5-a]pyrimidin-6-yl}-phenol]: below 1 µM; for `CN1CCN(c2ccc(-c3cnn4c(N)c(-c5ccccc5Cl)cnc34)cc2)CC1` [Example 77, 6-(2-Chloro-phenyl)-3-[4-(4-methyl-piperazin-1-yl)-phenyl]-pyrazolo[1,5-a]pyrimidin-7-ylamine]: below 1 µM.
For the compound `CN1CCN(c2cccc(-c3cnn4c(N)c(-c5ccccc5Cl)cnc34)c2)CC1` [Example 78, 6-(2-Chloro-phenyl)-3-[3-(4-methyl-piperazin-1-yl)-phenyl]-pyrazolo[1,5-a]pyrimidin-7-ylamine], the IC50 was in the range of 1 to 10 µM.
In the case of `Cc1nc2c(-c3ccc(N4CCN(C)CC4)cc3)cnn2c(N)c1-c1ccc(F)cc1` [Example 79, 6-(4-Fluoro-phenyl)-5-methyl-3-[4-(4-methyl-piperazin-1-yl)-phenyl]-pyrazolo[1,5-a]pyrimidin-7-ylamine], the IC50 is above 10 µM.
Regarding `Cc1nc2c(-c3cccc(N4CCN(C)CC4)c3)cnn2c(N)c1-c1ccc(F)cc1` [Example 80, 6-(4-Fluoro-phenyl)-5-methyl-3-[3-(4-methyl-piperazin-1-yl)-phenyl]-pyrazolo[1,5-a]pyrimidin-7-ylamine], the IC50 lay in the range of 1 to 10 µM.
For the compound `Cc1nc2c(-c3cccc(N4CCN(C5CCN(C)CC5)CC4)c3)cnn2c(N)c1-c1cccc(Cl)c1` [Example 81, 6-(3-Chloro-phenyl)-5-methyl-3-{3-[4-(1-methyl-piperidin-4-yl)-piperazin-1-yl]-phenyl}-pyrazolo[1,5-a]pyrimidin-7-ylamine], the IC50 was below 1 µM.
As for `Cc1nc2c(-c3cccc(N4CCN(C)CC4)c3)cnn2c(N)c1-c1ccc(F)c(Cl)c1` [Example 82, 6-(3-Chloro-4-fluoro-phenyl)-5-methyl-3-[3-(4-methyl-piperazin-1-yl)-phenyl]pyrazolo[1,5-a]pyrimidin-7-ylamine], the IC50 was above 10 µM.
The same measure for `Cc1nc2c(-c3ccc(N4CCN(C)CC4)cc3)cnn2c(N)c1-c1ccc(F)c(Cl)c1` [Example 83, 6-(3-Chloro-4-fluoro-phenyl)-5-methyl-3-[4-(4-methyl-piperazin-1-yl)-phenyl]-pyrazolo[1,5-a]pyrimidin-7-ylamine]: above 10 µM.
With `Cc1nc2c(-c3cccc(N4CCN(C)CC4)c3)cnn2c(N)c1-c1cccc(Br)c1` [Example 84, 6-(3-Bromo-phenyl)-5-methyl-3-[3-(4-methyl-piperazin-1-yl)-phenyl]-pyrazolo[1,5-a]pyrimidin-7-ylamine], the IC50 was above 10 µM.
For the compound `CN1CCN(c2cccc(-c3cnn4c(N)c(Cc5cccc(Br)c5)cnc34)c2)CC1` [Example 85, 6-(3-Bromo-benzyl)-3-[3-(4-methyl-piperazin-1-yl)-phenyl]pyrazolo[1,5-a]pyrimidin-7-ylamine], the IC50 is above 10 µM.
The result for `CN1CCN(c2cccc(-c3cnn4c(N)c(-c5cccc(Br)c5)cnc34)c2)CC1` [Example 86, 6-(3-Bromo-phenyl)-3-[3-(4-methyl-piperazin-1-yl)-phenyl]-pyrazolo[1,5-a]pyrimidin-7-ylamine] reads 1 to 10 µM.
The result for `Cc1nc2c(-c3cccc(N4CCOCC4)c3)cnn2c(N)c1-c1cccc(Cl)c1` [Example 87, 6-(3-Chloro-phenyl)-5-methyl-3-(3-morpholin-4-yl-phenyl)-pyrazolo[1,5-a]pyrimidin-7-ylamine] reads above 10 µM; that for `COc1ccc(-c2cnn3c(N)c(-c4cccc(Cl)c4)c(C)nc23)cc1` [Example 88, 6-(3-Chloro-phenyl)-3-(4-methoxy-phenyl)-5-methyl-pyrazolo[1,5-a]pyrimidin-7-ylamine], above 10 µM; that for `Cc1nc2c(-c3cccc(N4C[C@@H](C)O[C@@H](C)C4)c3)cnn2c(N)c1-c1cccc(Cl)c1` [Example 89, 6-(3-Chloro-phenyl)-3-[3-((2R,6S)-2,6-dimethyl-morpholin-4-yl)-phenyl]-5-methyl-pyrazolo[1,5-a]pyrimidin-7-ylamine], 1 to 10 µM.
On to `Cc1nc2c(-c3cccc(N4CCN(CCO)CC4)c3)cnn2c(N)c1-c1cccc(Cl)c1` [Example 90, 2-(4-{3-[7-Amino-6-(3-chloro-phenyl)-5-methyl-pyrazolo[1,5-a]pyrimidin-3-yl]-phenyl}-piperazin-1-yl)-ethanol], for which the IC50 fell in the range of 1 to 10 µM.
The same measure for `CN1CCN(c2cccc(-c3cnn4c(N)c(Cc5ccccc5)cnc34)c2)CC1` [Example 91, 6-Benzyl-3-[3-(4-methyl-piperazin-1-yl)-phenyl]-pyrazolo[1,5-a]pyrimidin-7-ylamine]: above 10 µM; for `COc1ccc(-c2cnn3c(N)c(-c4cccc(Cl)c4)c(CF)nc23)cc1OC` [Example 92, 6-(3-Chloro-phenyl)-3-(3,4-dimethoxy-phenyl)-5-fluoromethyl-pyrazolo[1,5-a]pyrimidin-7-ylamine]: above 10 µM.
In the case of `COc1ccc(-c2cnn3c(N)c(-c4cccc(Cl)c4)c(C)nc23)cc1OC` [Example 93, 6-(3-Chloro-phenyl)-3-(3,4-dimethoxy-phenyl)-5-methyl-pyrazolo[1,5-a]pyrimidin-7-ylamine], the IC50 was above 10 µM.
The result for `COc1ccc(-c2cnn3c(N)c(-c4ccc(F)c(Cl)c4)c(C)nc23)cc1OC` [Example 94, 6-(3-Chloro-4-fluoro-phenyl)-3-(3,4-dimethoxy-phenyl)-5-methyl-pyrazolo[1,5-a]pyrimidin-7-ylamine] reads above 10 µM; that for `COc1ccc(-c2cnn3c(N)c(-c4ccc(F)c(Cl)c4)c(C)nc23)cc1` [Example 95, 6-(3-Chloro-4-fluoro-phenyl)-3-(4-methoxy-phenyl)-5-methyl-pyrazolo[1,5-a]pyrimidin-7-ylamine], above 10 µM; that for `COc1ccc(-c2cnn3c(N)c(-c4ccc(F)cc4)c(C)nc23)cc1` [Example 96, 6-(4-Fluoro-phenyl)-3-(4-methoxy-phenyl)-5-methyl-pyrazolo[1,5-a]pyrimidin-7-ylamine], above 10 µM.
In the case of `Cc1nc2c(-c3cccc(N4CCN(CCO)CC4)c3)cnn2c(N)c1-c1ccc(F)cc1` [Example 97, 2-(4-{3-[7-Amino-6-(4-fluoro-phenyl)-5-methyl-pyrazolo[1,5-a]pyrimidin-3-yl]-phenyl}-piperazin-1-yl)-ethanol], the IC50 was above 10 µM.
For `Cc1nc2c(-c3cccc(N4CCN(C)CC4)c3)cnn2c(N)c1-c1ccc(F)c(F)c1` [Example 98, 6-(3,4-Difluoro-phenyl)-5-methyl-3-[3-(4-methyl-piperazin-1-yl)-phenyl]-pyrazolo[1,5-a]pyrimidin-7-ylamine], the 50% inhibitory concentration (IC50) lay within 1 to 10 µM.

In general, IC50 refers to the midpoint of a concentration-inhibition curve.
